Data taken from patent US6902881B2, “Compounds and methods for regulating cell differentiation” (priority 2000, dated 2005).
Several values for one entry are separate records, joined by “and”; a condition that tells them apart may be missing. Equal entries are not always repeated.

Assays:
B-lymphoblast (LB) cells = experiment: Proliferation of B-lymphoblast cells; format: cell-based, mouse
[1] = system: UV-irradiated Xenopus laevis stage 1 embryos; experiment: Rescue of dorsal axis formation in UV-irradiated embryos, scored by dorsal anterior index (DAI); format: in vivo
Protocol: Several hundred spawned eggs were fertilized in vitro and incubated at 16 to 18° C. […] The vegetal surfaces of some of these embryos were irradiated with one or the other sources of UV light within 10 min of fertilization for 20-30 min. […] The embryos were not disturbed, touched or tipped from the moment of fertilization, during UV irradiation or for the duration of development. […] A score of 5 defines a normal dorsal axis, 4 a microcephalic, 3 a cyclopic, 2 an anoptic, 1 an acephalic and 0 an adorsal embryo.
The biological activities of biliverdin and its derivatives were tested by adding each of them to the incubation solution of embryos after the termination of the UV light exposure to either 254 or 366 nm UV light and at selected time periods between T ƒfm=0.4-2.5. Final concentrations of biliverdin ranged from 0.05 to 5 μM in less than 1% ethanol. […] An extinction coefficient of 51,000 was utilized to calculate their concentrations. All petri dishes were covered with aluminum foil to avoid light exposure. The extent of dorsal axis formation was analyzed by the morphological criteria described above.
Stage 1 embryos were exposed to UV-light source emitting at 366 nm (Mineralight UVSL-58, Ultraviolet Products, Inc., San Gabriel, Calif.) as described and then incubated in the presence of pure candidate DCD or commercially available biliverdin (Sigma-Aldrich, St. Louis, Mo.) at final concentrations from 0.05 to 1.2 μM in less than 1% ethanol. The concentrations were calculated using a molar extinction coefficient of 51,000. One group of embryos was not exposed to UV light but was incubated in the presence of 0.5 μM of candidate DCD.

HT29 colon cancer cells = experiment: Cellular proliferation and viability of HT29 colon cancer cells; format: cell-based, human
Protocol: Cell Culture Conditions. Human HT 29 colon cancer cells were purchased from the American Type Culture Collection. Cells were maintained in Dulbecco's Modified Eagle's Medium (DME) supplemented with 5% heat-inactivated fetal bovine serum, 2 mM glutamine, and antibiotics (DME/5%). All cell lines were incubated in a humidified 5% CO2/air environment. They were maintained at 37° C. in 5% CO2 covered in aluminum foil to prevent exposure to the light. A total of 1×10^6 cells were incubated per flask and allowed to attach overnight. Media was changed every third day. Cell counts were performed on a Coulter Counter following detachment of cells by standard trypsinization procedures. […] The period of exposure was followed by incubation in the absence of biliverdine. Cell numbers were monitored until proliferation resumed. The production of CEA and alkaline phosphatase was measured as described below.
The HT29 colon cancer cells were incubated with different concentrations of biliverdine and their response studied to identify the concentration ranges required to elicit a biological and/or a toxicological response (Table III).

liposarcoma (LS) cells = experiment: Proliferation of liposarcoma cells; format: cell-based, human
[2] = target: T1, peroxisome proliferator-activated receptor (PPARγ) system (Homo sapiens, UniProt P37231); experiment: Use of the peroxisome proliferator-activated receptor system
T1 sequence (P37231 1-505): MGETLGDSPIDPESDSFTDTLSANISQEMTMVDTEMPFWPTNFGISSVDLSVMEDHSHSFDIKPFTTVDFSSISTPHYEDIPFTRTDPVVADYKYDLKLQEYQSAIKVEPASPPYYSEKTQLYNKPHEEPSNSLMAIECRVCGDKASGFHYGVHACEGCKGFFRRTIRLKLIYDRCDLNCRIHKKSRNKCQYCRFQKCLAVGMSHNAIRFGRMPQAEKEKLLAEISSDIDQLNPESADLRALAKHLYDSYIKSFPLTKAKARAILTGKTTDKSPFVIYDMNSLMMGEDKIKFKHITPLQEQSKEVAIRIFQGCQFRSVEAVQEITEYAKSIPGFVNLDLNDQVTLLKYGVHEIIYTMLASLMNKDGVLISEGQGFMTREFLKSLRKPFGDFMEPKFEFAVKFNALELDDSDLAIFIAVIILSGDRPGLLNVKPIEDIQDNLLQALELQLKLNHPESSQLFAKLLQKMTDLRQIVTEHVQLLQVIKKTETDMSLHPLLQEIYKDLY

[3] = system: thyroid cancer (Th) cells; experiment: Proliferation of thyroid carcinoma cells; format: cell-based, human
[4] = system: retinoid signaling system (RAR or RXR); experiment: Use of the retinoid signaling system
[5] = UV exposed embryos incubated with the intact tetrapyrrole

SMILES: C=CC1=C(C)/C(=C/C2=NC(=C\c3[nH]c(/C=C4\NC(=O)C(C)=C4C=C)c(C)c3CCC(=O)O)/C(CCC(=O)O)=C2C)NC1=O [Biliverdin, biliverdin IXα]
- time until proliferation ceases (B-lymphoblast (LB) cells): within one day
- time until cell division resumes at nearly the control rate (B-lymphoblast (LB) cells; still exposed): 3 to 4 days
- embryos scored with a DAI between 5-4 ([1]; 254 nm UV light, treated with biliverdin): About 51%
- concentration at which plateau of recovery is reached ([1]; 254 or 366 nm UV light, FIG. 3C): 1.2 µM
- recovery of dorsal axial structures ([1]; 254 or 366 nm UV-irradiated embryos, μM amounts): recover to form dorsal axial structures
- embryos that recover and are scored with 4-5 ([1]; 366 nm UV light, incubated with biliverdin): ~55%
- embryos that do not develop dorsal structures, DAI of 0 [1, 5]: 20 to 30%
- tadpoles that develop with DAI scores of 5 or 4 [1, 5]: About 55%
- degree of recovery of dorsal axis formation relative to oocyte biliverdin ([1]; UV-irradiated embryos, FIG. 2E): comparable
- Average DAI score ([1]; embryos irradiated with 254 nm UV light, treated with biliverdin, DAI 5 normal, 0 adorsal): 2.72
- Average DAI score ([1]; embryos irradiated with 366 nm UV light, incubated with biliverdin, total population): 3.08
- amount that does not affect cellular survival or proliferation (HT29 colon cancer cells; HT29): lower than 10^−7 M
- concentration that causes apoptosis (HT29 colon cancer cells; HT29): ≥ 1000 nM
- concentration with no effect on survival or proliferation (HT29 colon cancer cells; HT29): below 0.1 μM
- Effect on cellular proliferation and viability (HT29 colon cancer cells; HT29, 0.01 μM): None
- Effect on cellular proliferation and viability (HT29 colon cancer cells; HT29, 0.1 μM): Proliferative Arrest
- Effect on cellular proliferation and viability (HT29 colon cancer cells; HT29, 0.30 μM): Proliferative Arrest
- Effect on cellular proliferation and viability (HT29 colon cancer cells; HT29, 0.40 μM): Proliferative Arrest
- Effect on cellular proliferation and viability (HT29 colon cancer cells; HT29, 1.00 μM): Apoptosis
- effect on proliferation (HT29 colon cancer cells; HT29, 5 μM, associated decrease of cell numbers in first three days): arrests proliferation
- time until proliferative arrest (HT29 colon cancer cells; HT29, 0.1 to 0.4 μM): ≤ 72 h
- doubling time during exposure (HT29 colon cancer cells; HT29, 4×10^−7 M, next 35 days after arrest): 103 h
- time of exposure until proliferation is arrested (HT29 colon cancer cells; HT29, FIG. 9): ≤ 1 days
- proliferation rate after resumption, fold less than control (HT29 colon cancer cells; HT29, after end of exposure): 2-3 fold
- reduction of three-day cell number increase compared to controls (HT29 colon cancer cells; HT29, treated and released cells): five-fold reduction
- increase of cell number in a three-day period (HT29 colon cancer cells; HT29, treated and released cells, control about 15 times): 3.4 times
- proliferation rate after resumption, relative to control (HT29 colon cancer cells; HT29, treatment discontinued day 30, resumption twelve days later): 43%
- doubling time after removal of biliverdin (HT29 colon cancer cells; HT29, twelve days after removal, control 18 hrs): 41 h
- day after which division resumes at markedly reduced rate (liposarcoma (LS) cells): > 3 days
- division slower than control (liposarcoma (LS) cells): 3.3 times
- time until proliferation ceases (liposarcoma (LS) cells): within one day
- use of the PPARγ system [2]: does not use
- division slower than control [3]: 4.7 times
- time until proliferation ceases [3]: six days and 6 days
- recovery of proliferative rate ([3]; 12-day observation period): did not recover its proliferative rate at all
- use of the retinoid signaling system (RAR or RXR) [4]: does not use
